Reference: patent US5532242A, “Piperazine derivatives as 5-HT receptors antagonists” (John Wyeth & Brother, Limited, priority 1992, dated 1996)

Experiments:
[1] = molecular target: T1, 5-HT1A receptor (Rattus norvegicus, UniProt P19327); assay: 5-HT1A receptor binding activity in rat hippocampal membrane homogenate
T1 construct: rat hippocampal membrane homogenate; from tissue; host or cells: rat hippocampal membrane homogenate
T1 sequence (P19327 1-422): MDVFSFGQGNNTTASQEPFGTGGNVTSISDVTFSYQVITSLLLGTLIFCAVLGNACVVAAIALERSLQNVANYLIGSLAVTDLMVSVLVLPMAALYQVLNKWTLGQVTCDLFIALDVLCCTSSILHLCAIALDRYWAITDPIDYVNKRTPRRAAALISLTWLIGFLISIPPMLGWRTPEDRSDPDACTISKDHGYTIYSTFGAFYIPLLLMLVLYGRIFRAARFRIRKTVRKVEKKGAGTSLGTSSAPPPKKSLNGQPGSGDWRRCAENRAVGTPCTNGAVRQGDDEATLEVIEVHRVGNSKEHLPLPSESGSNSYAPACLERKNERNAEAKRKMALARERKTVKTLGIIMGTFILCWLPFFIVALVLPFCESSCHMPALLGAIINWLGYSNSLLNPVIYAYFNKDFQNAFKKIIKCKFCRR
Method: The compounds of the invention were tested for 5-HT1A receptor binding activity in rat hippocampal membrane homogenate by the method of B S Alexander and M D Wood, J Pharm Pharmacol, 1988, 40, 888-891.

[2] = molecular target: T2, 5-HT1A receptor (Cavia porcellus, UniProt A0A286Y074); assay: 5-HT1A receptor antagonism: antagonism of 5-carboxamidotryptamine in the guinea-pig ileum in vitro; conditions: read-out: pA2 (converted)
T2 construct: guinea-pig ileum in vitro; from tissue; host or cells: guinea-pig ileum
T2 sequence (A0A286Y074 1-421): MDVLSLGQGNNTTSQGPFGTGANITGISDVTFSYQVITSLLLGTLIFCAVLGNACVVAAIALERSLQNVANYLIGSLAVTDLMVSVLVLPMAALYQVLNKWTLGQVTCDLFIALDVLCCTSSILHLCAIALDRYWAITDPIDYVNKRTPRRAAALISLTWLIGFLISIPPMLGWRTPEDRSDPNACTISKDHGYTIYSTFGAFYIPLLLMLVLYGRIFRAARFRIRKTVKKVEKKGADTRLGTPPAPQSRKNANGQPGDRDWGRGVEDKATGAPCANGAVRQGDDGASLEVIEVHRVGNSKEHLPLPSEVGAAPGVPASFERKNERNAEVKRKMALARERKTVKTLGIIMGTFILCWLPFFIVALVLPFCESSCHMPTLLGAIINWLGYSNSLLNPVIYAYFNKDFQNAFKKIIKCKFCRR
Method: The compounds are tested for 5-HT1A receptor antagonism activity in a test involving the antagonism of 5-carboxamidotryptamine in the guinea-pig ileum in vitro (based upon the procedure of Fozard et al, Br J Pharmac, 1985, 86, 601P ).

- IC50 [1]: 4 nM
- Kb [2]: 6.31 nM
SMILES: COc1ccccc1N1CCN(CCN(C(=O)C2CCCCC2)c2ccccc2)CC1 [Example 2, N-(2-(4-(2-Methoxyphenyl)piperazin-1-yl)ethyl)-N-phenylcyclohexanecarboxamide]
